Source: patent publication US20080311601A1, “Methods for Prediction and Prognosis of Cancer, and Monitoring Cancer Therapy” (priority 2005, published 2008)

Tested on: VEGF
Experiment: VEGF ELISA on plasma from renal cell carcinoma patients treated with Sorafenib
Type: in vivo, human
Method: Duplicate samples were used to measure the VEGF level using a VEGF ELISA (R&D Systems, Minneapolis, Minn.) per the manufacturers directions. The mean value of the duplicate measurements was determined for each patient.

Structure (SMILES): CNC(=O)c1cc(Oc2ccc(NC(=O)Nc3ccc(Cl)c(C(F)(F)F)c3)cc2)ccn1 [Sorafenib]
- Median VEGF (Baseline (pretreatment)): 237.4 pg/mL
- Median VEGF (Cycle 1 Day 21): 301.6 pg/mL
- Median VEGF (Cycle 3 Day 1): 309.0 pg/mL
- change of VEGF levels from baseline (at both time points (Cycle 1 Day 21, Cycle 3 Day 1), p<<0.01, paired t-test): increase significantly from baseline
